Assay results from US8080517B2, “Cell-permeable peptide inhibitors of the JNK signal transduction pathway” (Xigen SA, priority 2005, dated 2011).
“Also recorded” adds a separate entry of the source. Where a SMILES comes first, the peptide text is derived from it. [ ]: non-standard residue; d: D form.

Key:
βTC-3 cell cultures = type: cell-based
Description: The ability of the L- and D-enantiomeric forms of TAT and inventive TAT-IB1(s) peptides (“TAT-IB peptides”) to enter cells was evaluated. L-TAT, D-TAT, inventive L-TAT-IB1(s), and inventive D-TAT-IB1(s) peptides [SEQ ID NOs: 5, 6, 9 and 12, respectively] were labeled by N-terminal addition of a glycine residue conjugated to fluorescein. Labeled peptides (1 μM) were added to βTC-3 cell cultures, which were maintained as described in Example 3. At predetermined times cells were washed with PBS and fixed for five minutes in ice-cold methanol-acetone (1:1) before being examined under a fluorescence microscope. Fluorescein-labeled BSA (1 μM, 12 moles/mole BSA) was used as a control.
Little to no signal was present at 48 hours.
Fluorescent signals from these all-D retro-inverso peptides were still very strong 1 week later, and the signal was only slightly diminished at 2 weeks post treatment.

[1] = Focal cerebral ischemia, permanent MCAO model, lesion volume; type: in vivo, 12-days-old rats
Excerpt: Focal cerebral ischemia was induced in 12-days-old rats. Pups were anesthetized in an induction chamber with 2% isoflurane and during the operation anaesthesia was maintained using a mask under 2% isoflurane. MCAO was induced by electrocoagulating a main branch of the middle cerebral artery (MCA). Rats were placed on the right side, and an oblique dermal incision was made between the ear and eye. After excision of the temporal muscle, the cranial bone was removed from the frontal suture to a level below the zygomatic arch. […] The cranial skin incision was then closed. Rat pups were then placed in an incubator maintained at 37° C. until they awoke, and were then transferred to their mother.
6 hours later an inventive chimeric D-TAT-IB1(s) peptide according to SEQ ID NO: 11 was injected intraperitoneally. 24 hours after the coagulation, the rats were anesthetized with chloral hydrate and perfused through the ascending aorta with 4% paraformaldehyde in PBS. Brains were then removed and kept for 2 hours in the same fixative solution, and placed in a gradient of 30% sucrose in PBS for about 15 hours at 4° C. Brains were frozen in isopentane (−40° C.) and stored at −20° C. Coronal cryostat sections of 50 µm were collected on glass slides. The sections were stained with cresyl violet. Each tenth section was analyzed and the total volume of the lesion was calculated using the Neuroleucida programme. In the control group A, the mean lesion volume was 21.47 mm^3. […] A significant statistic difference is observed between group A and groups C, E and F (one-tailed t-test, p=0.030, p=0.002, p=0.001 respectively).

βTC-3 cells = assay: IL-1β induced pancreatic β-cell death, peptide treatment, propidium iodide / Hoechst 33342 staining; type: cell-based; settings: one single addition 1 μM, IL-1β 10 ng/ml every two days, 15 days
Description: We investigated the effects of the inventive L-TAT-IB(s) peptides on the promotion of β-cell apoptosis elicited by IL-1. βTC-3 cell cultures were incubated for 30 minutes with 1 μM of inventive L-TAT-IB1(s) peptides followed by 10 ng/mL of IL-1. A second addition of peptide (1 μM) was performed 24 hours later. Apoptotic cells were counted after two days of incubation with IL-1 β using propidium iodide (red stained cell are dead cells) and Hoechst 33342 (blue stained cell are cells with intact plasma membrane) nuclear staining.
Long term inhibition of IL-1 induced cells death was examined by treating βTC-3 cells as described above, except that incubation of the cells with the peptides and IL-1 β was sustained for 12 days. Additional peptides (1 μM) were added each day and additional IL-1 β (10 ng/mL) was added every 2 days. […] Taken together, these experiments provide evidence that inventive TAT-IB(s) peptides are biologically active molecules able to prevent the effects of JNK signaling on cell fate.
Inhibition of IL-1 β induced pancreatic β-cell death by the inventive D-TAT-IB1(s) peptide was analyzed. βTC-3 cells were incubated as described above for 30 minutes with one single addition of the indicated peptides (1, μM), then IL-1 (10 ng/ml) was added.
Apoptotic cells were then counted after two days of incubation with IL-1 β by use of Propidium Iodide and Hoechst 33342 nuclear staining. A minimum of 1,000 cells were counted for each experiment. Standard Error of the Means (SEM) are indicated, n=5.
Long term inhibition of IL-1P induced cell-death by the D-TAT-IB1 peptide was also analyzed. βTC-3 cells were incubated as above for 30 minutes with one single addition of the indicated peptides (1 μM), then IL-1 β (10 ng/ml) was added, followed by addition of the cytokine every two days. Apoptotic cells were then counted after 15 days of incubation with IL-1 by use of propidium iodide and Hoechst 33342 nuclear staining. […] A minimum of 1.000 cells were counted for each experiment.

[2] = Noise trauma, hearing threshold shifts by auditory brainstem response; type: in vivo, guinea pigs
Description: D-TAT-IB1(s) was applied onto the round window membrane of the cochlea of 3 groups of guinea pigs (each group with 6 animals) in 2 microliters of a gel formulation of 2.6% buffered hyaluronic acid (Hylumed, Genzyme Corp.) at a concentration of 100 µM either 30 minutes before noise trauma (120 dB at 6 kHz during 30 minutes) or 30 minutes or 4 hours thereafter. Untreated ears served as control. Hearing threshold shifts were evaluated by auditory brainstem response measurements 20 minutes after noise trauma (temporary threshold shift, TTS) and 15 days following the trauma (permanent threshold shift, PTS). […] Thus, D-TAT-IB1 (s) is a very effective otoprotective compound in case of noise trauma.

[3] = system: cortical neuronal culture; assay: LDH release from cortical neuronal cultures following NMDA stimulation; type: cell-based, rat; settings: 5 μM pre-treatment 30 min, 100 μM NMDA, 12 h
Description: The neuroprotective effect of the D-TAT-IB (generic)(s)/D-JNKI1 peptide (SEQ ID NO: 12) was evaluated in sister cultures pre-treated for 30 min with the indicated concentrations of peptides or MK-801 before continuous exposure to 100 μM NMDA.
Cortical neuronal culture. We dissected small pieces of cortex from the brains of two day old rat pups, incubated them with 200 units of papain for 30 min at 34° C., and then plated the neurons at densities of approximately 1×10^6 cells/plate on dishes pre-coated with 100 μg/ml poly-D-lysine. The plating medium consisted of B27/Neurobasal (Life Technologies, Gaithersburg, Md.) supplemented with 0.5 mM glutamine, 100 U/ml penicillin and 100 ug/ml streptomycin.
Lactate dehydrogenate (LDH) cytotoxicity assay. LDH released into the bathing medium 12, 24 and 48 h after NMDA administration was measured using the Cytotox 96 non-radioactive cytotoxicity assay kit (Promega, Wis.) (see FIG. 5).

**Q.** With `CC(C)C[C@@H](NC(=O)[C@@H](Cc1ccccc1)NC(=O)[C@H]1CCCN1C(=O)[C@@H](CCC(N)=O)NC(=O)[C@H](NC(=O)[C@H]1CCCN1C(=O)[C@@H](CCCNC(=N)N)NC(=O)[C@@H](CO)NC(=O)[C@@H](CCC(N)=O)NC(=O)[C@H](N)CC(=O)O)C(C)C)C(=O)N[C@H](CC(N)=O)C(=O)N[C@H](CC(C)C)C(=O)N[C@@H](C(=O)N[C@@H](C(=O)N1CCC[C@@H]1C(=O)N[C@H](CCCNC(=N)N)C(=O)N[C@H](CCCCN)C(=O)N1CCC[C@@H]1C(=O)N[C@H](CCCNC(=N)N)C(=O)N1CCC[C@@H]1C(=O)N1CCC[C@@H]1C(=O)N[C@H](CCCNC(=N)N)C(=O)N[C@H](CCCNC(=N)N)C(=O)N[C@H](CCCNC(=N)N)C(=O)N[C@H](CCC(N)=O)C(=O)N[C@H](CCCNC(=N)N)C(=O)N[C@H](CCCNC(=N)N)C(=O)N[C@H](CCCCN)C(=O)N[C@H](CCCCN)C(=O)N[C@H](CCCNC(=N)N)C(=O)NCC(=O)O)[C@H](C)O)[C@H](C)O` [D-TAT-IB1(s)] (H-[dD][dQ][dS][dR][dP][dV][dQ][dP][dF][dL][dN][dL][dT][dT][dP][dR][dK][dP][dR][dP][dP][dR][dR][dR][dQ][dR][dR][dK][dK][dR]G-OH) as the compound, how does the “stability inside the cells” value (βTC-3 cell cultures) read?
**A.** Its value is “extremely stable inside the cells”.

**Q.** What about the “mean lesion volume of all treated groups versus control group” value ([1]; control group mean 21.47 mm^3) of the same compound?
**A.** Its value is “lower mean than the control group”.

**Q.** And the “cerebral protection (lesion volume) compared to saline group” value ([1]; doses 1 mg/kg, 0.003 mg/kg and 0.0003)?
**A.** The value was “not large enough to reach a significant difference”.

**Q.** What about the “dose of best protection” value ([1]; i.p. 6 hours after MCAO) of the same compound?
**A.** Its value is 0.03 mg/kg.

**Q.** What about the “cerebral protection (lesion volume)” value ([1]; i.p. 6 hours after MCAO, doses 11 mg/kg, 3 mg/kg, 0.3 mg/kg and 0.03 mg/kg, 24 hours after coagulation) of the same compound?
**A.** Its value is “contributes to a cerebral protection”.

**Q.** And the “long term inhibition of IL-1β induced cell-death” value (βTC-3 cells)?
**A.** Its value is “able to confer long term (15 day) protection”.

**Q.** What about the “protection against permanent hearing loss (PTS, 15 days)” value ([2]; 100 μM in hyaluronic acid gel on round window membrane 30 minutes before noise trauma (120 dB at 6 kHz, 30 minutes)) of the same compound?
**A.** Its value is “protects substantially against permanent hearing loss from noise trauma if applied preventively before the noise exposure”.

**Q.** What about the “permanent threshold shift (PTS, 15 days) versus untreated control ears” value ([2]; 100 μM in hyaluronic acid gel on round window membrane 30 minutes or 4 hours after noise trauma) of the same compound?
**A.** Its value is “significantly lower; also recorded: protected against permanent hearing loss even if applied after exposure to excessive noise”.

**Q.** What about the “dependence of the protective effect on time of administration after noise trauma” value ([2]; 30 minutes versus 4 hours after trauma) of the same compound?
**A.** Its value is “in a time-dependent fashion if administered after trauma; also recorded: stronger the earlier”.

**Q.** What about the “degenerative changes due to NMDA exposure (LDH release above controls)” value [3] of the same compound?
**A.** The value was “completely inhibited”.

**Q.** And the “morphological appearance, number and distribution of the neurons” value [3]?
**A.** Its value is “indistinguishable from the controls”.
